From US11912790B2, “Peptide compounds and therapeutic uses of same” (Immunity Pharma Ltd., priority 2018, dated 2024)
Entries after “also recorded” stand apart in the source; their conditions may differ. No end group written: not given here.

Tests used:
[1] = test system: BALB/c mice; experiment: Dexamethasone-induced spleen and thymus weight and cell count loss in mice, Example 1 (FIG. 1); format: in vivo, mouse; settings: 100 μg Dexamethasone IP; for reduction of cell count loss (spleen and thymus) / reduction of the amount of dexamethasone-induced spleen and/or thymus weight loss: BALB/c mice, peptide IV 250 or 400 μg/mouse immediately and 24 h after, sacrifice at 48 h, no difference between the 2 doses
Description: The peptides described herein are capable of reducing the amount of dexamethasone-induced spleen and/or thymus weight loss in a mouse—e.g. following injection (IP) with 100 μg of Dexamethasone.
(§1) Dexamethasone is a corticosteroid medication that induces apoptosis of immune cells and lymphomyeloid tissues. BALB/c mice were used to examine the ability of candidate peptides to rescue lymphocyte cells from apoptosis. Mice were injected IP with 100 μg of Dexamethasone. Dexamethasone-treated mice received immediately following and 24-hours after dexamethasone treatment IV injection of candidate peptides (250 or 400 μg peptide/mouse). Mice were sacrificed 48 hours after the first treatment. The spleen and the thymus were weighted and full cell count of both organs was performed.

[2] = test system: BALB/c mice; experiment: Dexamethasone-induced spleen and thymus weight and cell count loss in mice, Example 2 (FIG. 2); format: in vivo; settings: 100 μg Dexamethasone IP, peptide IV 200 μg/mouse immediately and 24 h after, sacrifice at 48 h
Description: as §1, with “BALB/c” for “Dexamethasone is a corticosteroid medication that induces apoptosis of immune cells and lymphomyeloid tissues. BALB/c”, “(200” for “(250 or 400”

Row | Compound | reduction of cell count loss (spleen and thymus) [1] | reduction of the amount of dexamethasone-induced spleen and/or thymus weight loss [1] | reduction of the amount of dexamethasone-induced spleen and/or thymus weight loss [2] | spleen and thymus weight loss and reduction in spleen cell count induced by dexamethasone ([1]; 48 h, compared to normal mice) | thymus cell count reduction induced by dexamethasone ([1]; 48 h, compared to normal mice) [%]
1 | LPPLAYP [SEQ ID NO: 4] | significant effect | significant effect; also recorded: significantly reduced | – | – | –
2 | PPLPY (not fully specified (C-terminus)) [SEQ ID NO: 3] | significant effect | significant effect; also recorded: significantly reduced | – | – | –
3 | PPLAYP [SEQ ID NO: 18] | – | – | significant improvement | – | –
4 | C[C@@H]1C[C@H]2[C@@H]3CCC4=CC(=O)C=C[C@]4(C)[C@@]3(F)[C@@H](O)C[C@]2(C)[C@@]1(O)C(=O)CO [Dexamethasone, reference compound] | – | – | – | about 50% | ~80
